Assay results reported in the CheMixHub ionic liquid set.

Experiment: xn = mol fraction of the nth substance listed

CCCC[n+]1ccn(C)c1.O=S(=O)([O-])C(F)(F)F + CS(C)=O + OCCO
viscosity [mPa·s], 100 kPa
Conditions | 298.15 K | 303.15 K | 308.15 K | 313.15 K | 318.15 K | 323.15 K
x1 = 0.0301, x2 = 0.903 | 3.07 | 2.75 | 2.47 | 2.25 | 2.04 | 1.86
x1 = 0.0698, x2 = 0.8409 | 3.41 | 3.16 | 2.83 | 2.56 | 2.32 | 2.12
x1 = 0.1006, x2 = 0.7931 | 4.04 | 3.69 | 3.29 | 2.96 | 2.67 | 2.43
x1 = 0.1311, x2 = 0.7537 | 5.33 | 4.67 | 4.14 | 3.69 | 3.31 | 3
x1 = 0.1702, x2 = 0.7004 | 6.5 | 5.61 | 4.93 | 4.37 | 3.9 | 3.51
x1 = 0.2067, x2 = 0.6494 | 8.13 | 6.91 | 6.04 | 5.31 | 4.71 | 4.21
x1 = 0.2329, x2 = 0.603 | 9 | 7.8 | 6.78 | 5.95 | 5.26 | 4.68
x1 = 0.2768, x2 = 0.5373 | 11.8 | 9.8 | 8.47 | 7.38 | 6.48 | 5.74
x1 = 0.3089, x2 = 0.4851 | 13.6 | 11.2 | 9.67 | 8.39 | 7.35 | 6.48
x1 = 0.3348, x2 = 0.4441 | 15.1 | 12.1 | 10.4 | 8.97 | 7.83 | 6.89
x1 = 0.3723, x2 = 0.3876 | 17.3 | 14.2 | 12.2 | 10.5 | 9.13 | 8
x1 = 0.4022, x2 = 0.3357 | 19 | 15.7 | 13.4 | 11.5 | 10 | 8.73
x1 = 0.4355, x2 = 0.2923 | 21.3 | 17.9 | 15.1 | 13 | 11.2 | 9.82
x1 = 0.473, x2 = 0.2581 | 23.3 | 19.3 | 16.3 | 14 | 12.1 | 10.5
x1 = 0.5076, x2 = 0.2336 | 25.5 | 21.2 | 17.9 | 15.2 | 13.1 | 11.4
x1 = 0.5442, x2 = 0.2004 | 27.9 | 23.2 | 19.6 | 16.6 | 14.3 | 12.4
x1 = 0.5775, x2 = 0.1858 | 30.3 | 25.2 | 21.2 | 18 | 15.4 | 13.4
x1 = 0.6051, x2 = 0.18 | 32.5 | 26.9 | 22.6 | 19.2 | 16.4 | 14.2
x1 = 0.6226, x2 = 0.1647 | 33.8 | 27.8 | 23.3 | 19.7 | 16.9 | 14.6
x1 = 0.6651, x2 = 0.1526 | 37.8 | 31 | 26.1 | 22 | 18.8 | 16.2
x1 = 0.6961, x2 = 0.1474 | 41.2 | 33.5 | 28.2 | 23.8 | 20.3 | 17.5

CCCCCCCCCCCCCCCC[n+]1ccccc1.O=C([O-])c1ccccc1O + C[C@H](N)C(=O)O + O
electrical conductivity [S/m], 101 kPa
Conditions | 293.15 K | 298.15 K | 303.15 K | 308.15 K | 313.15 K
x2 = 0.0009002, x1 = 5.4e-07 | 0.00045 | 0.00051 | 0.000575 | 0.000646 | 0.000726
x2 = 0.0009002, x1 = 1.09e-06 | 0.000683 | 0.000777 | 0.000872 | 0.000975 | 0.00108
x2 = 0.0009002, x1 = 1.63e-06 | 0.000904 | 0.00102 | 0.00114 | 0.00127 | 0.00141
x2 = 0.0009002, x1 = 2.17e-06 | 0.00109 | 0.00123 | 0.00139 | 0.00155 | 0.00172
x2 = 0.0009002, x1 = 2.53e-06 | – | – | – | 0.00181 | 0.002
x2 = 0.0009002, x1 = 2.71e-06 | 0.00125 | 0.00144 | 0.00162 | – | –
x2 = 0.0009002, x1 = 3.07e-06 | 0.00137 | 0.00158 | 0.0018 | 0.00202 | 0.00228
x2 = 0.0009002, x1 = 3.62e-06 | 0.00148 | 0.0017 | 0.00195 | 0.00222 | 0.00249
x2 = 0.0009002, x1 = 3.98e-06 | 0.00159 | 0.00182 | 0.00208 | 0.00237 | 0.00267
x2 = 0.0009002, x1 = 4.52e-06 | 0.0017 | 0.00194 | 0.00222 | 0.00253 | 0.00286
x2 = 0.0009002, x1 = 4.88e-06 | 0.00181 | 0.00206 | 0.00235 | 0.00268 | 0.00303
x2 = 0.0009002, x1 = 5.43e-06 | 0.00191 | 0.00218 | 0.00248 | 0.00282 | 0.00319
x2 = 0.0009002, x1 = 5.79e-06 | 0.002 | 0.00228 | 0.0026 | 0.00295 | 0.00334
x2 = 0.0009002, x1 = 6.15e-06 | 0.0021 | 0.00239 | 0.00271 | 0.00308 | 0.00347
x2 = 0.0009002, x1 = 6.51e-06 | 0.00217 | 0.00247 | 0.0028 | 0.00318 | 0.0036
x2 = 0.0009002, x1 = 6.69e-06 | 0.00224 | 0.00255 | 0.00289 | 0.00327 | 0.00369
x2 = 0.001799, x1 = 3.6e-07 | 0.00047 | 0.000542 | 0.000625 | 0.000719 | 0.000829
x2 = 0.001799, x1 = 5.4e-07 | 0.000604 | 0.000697 | 0.000797 | 0.000911 | 0.00103
x2 = 0.001799, x1 = 9.1e-07 | 0.00073 | 0.000837 | 0.000953 | 0.00108 | 0.00123
x2 = 0.001799, x1 = 1.27e-06 | 0.000889 | 0.00102 | 0.00115 | 0.0013 | 0.00146
x2 = 0.001799, x1 = 1.63e-06 | 0.00104 | 0.00119 | 0.00134 | 0.00151 | 0.0017
x2 = 0.001799, x1 = 1.81e-06 | 0.00112 | 0.00128 | 0.00145 | 0.00163 | 0.00183
x2 = 0.001799, x1 = 2e-06 | 0.00121 | 0.00138 | 0.00156 | 0.00175 | 0.00196
x2 = 0.001799, x1 = 2.18e-06 | 0.00127 | 0.00145 | 0.00165 | 0.00186 | 0.00208
x2 = 0.001799, x1 = 2.36e-06 | – | – | 0.00177 | 0.00198 | 0.00222
x2 = 0.001799, x1 = 2.54e-06 | 0.00134 | 0.00155 | – | – | –
x2 = 0.001799, x1 = 2.72e-06 | 0.00142 | 0.00164 | 0.00188 | 0.00212 | 0.0024
x2 = 0.001799, x1 = 3.09e-06 | 0.00151 | 0.00174 | 0.002 | 0.00229 | 0.0026
x2 = 0.001799, x1 = 3.63e-06 | 0.00161 | 0.00186 | 0.00213 | 0.00244 | 0.00276
x2 = 0.001799, x1 = 3.99e-06 | 0.00173 | 0.00198 | 0.00227 | 0.0026 | 0.00296
x2 = 0.001799, x1 = 4.54e-06 | 0.00183 | 0.0021 | 0.0024 | 0.00275 | 0.00312
x2 = 0.001799, x1 = 4.9e-06 | 0.00192 | 0.0022 | 0.00251 | 0.00287 | 0.00326

O=C1CCCO1 + C[NH+](C)C.O=S(=O)([N-]S(=O)(=O)C(F)(F)F)C(F)(F)F
Conditions | viscosity [mPa·s]
333.15 K, 101 kPa, x1 = 1 | 1.08

CCCC[N+]1(C)CCCC1.O=S(=O)([N-]S(=O)(=O)C(F)(F)F)C(F)(F)F + Cc1ccccc1
viscosity [mPa·s], 100 kPa
Conditions | x2 = 0 | x2 = 0.3041 | x2 = 0.3965 | x2 = 0.5054 | x2 = 0.6027 | x2 = 0.7066
298.15 K | 70.1 | – | – | 14.96 | 10.08 | –
303.15 K | – | 25.03 | 18.66 | – | – | –
313.15 K | 37.99 | 18.55 | 14.35 | – | – | 4.73

O=C[C@H](O)[C@@H](O)[C@H](O)[C@H](O)CO + Cn1cc[n+](CCC[n+]2ccn(C)c2)c1.[Br-].[Br-] + O
101 kPa, x2 = 0, x1 = 0.001799
Conditions | viscosity [mPa·s]
293.15 K | 1.043
298.15 K | 0.927
303.15 K | 0.83
308.15 K | 0.754
313.15 K | 0.683

Fc1ccccn1 + Fc1cccc[nH+]1.O=S(=O)([O-])C(F)(F)F
100 kPa
Conditions | electrical conductivity [S/m]
242.8 K, x1 = 0.9 | 0.096
252.7 K, x1 = 0.9 | 0.144
262.8 K, x1 = 0.5 | 0.0069
282 K, x1 = 0.95 | 0.497
282.5 K, x1 = 0.5 | 0.023
282.5 K, x1 = 0.9 | 0.576
286.9 K, x1 = 0.95 | 0.564
292.7 K, x2 = 0.01 | 0.174
301.5 K, x1 = 0.9 | 0.75

C=CCn1cc[n+](C)c1.[I-] + II
Conditions | electrical conductivity [S/m]
298 K, 101.3 kPa, x1 = 0.25 | 4.21

CCCC[N+]1(C)CCCC1.N#C[N-]S(=O)(=O)C(F)(F)F + N#C[N-]S(=O)(=O)C(F)(F)F.[Li+]
101 kPa, frequency 0 MHz, x2 = 0
Conditions | electrical conductivity [S/m]
308 K | 0.644
313 K | 0.752

101 kPa, x2 = 0
Conditions | viscosity [mPa·s]
308 K | 33.6
313 K | 28.6

CCCCCCCCn1cc[n+](C)c1.F[B-](F)(F)F + NC(N)=O + O
298.15 K, 100 kPa
Conditions | viscosity [mPa·s]
x2 = 0, x3 = 0.9487 | 5.25
x2 = 0.008492, x3 = 0.9402 | 5.16
x2 = 0.01695, x3 = 0.9318 | 5.13
x2 = 0.03322, x3 = 0.9155 | 5.12
x2 = 0.0408, x3 = 0.9079 | 5.13

CCCCCCCCn1cc[n+](C)c1.[Br-] + NC(N)=O + O
298.15 K, 100 kPa
Conditions | viscosity [mPa·s]
x2 = 0, x3 = 0.9008 | 31.3
x2 = 0, x3 = 0.9487 | 7.96
x2 = 0.008063, x3 = 0.8927 | 31.3
x2 = 0.008505, x3 = 0.9402 | 7.68
x2 = 0.01609, x3 = 0.8847 | 31.2
x2 = 0.02499, x3 = 0.9237 | 7.49
x2 = 0.03154, x3 = 0.8693 | 30.7
x2 = 0.03316, x3 = 0.9155 | 7.32
x2 = 0.03874, x3 = 0.8621 | 30.7
x2 = 0.04082, x3 = 0.9079 | 7.14
